Data as given in patent publication US20090221560A1, “Pharmaceutical Formulation” (priority 2005, published 2009).

What was measured:
rats [1] = assay: Catalepsy induction in rats; assay type: in vivo; settings: at the low dose inhibiting conditioned avoidance response
5-HT-2 receptor = molecular target: T1, 5-HT-2 receptor (Rattus norvegicus, UniProt P14842); assay: Displacement of H-spiperone from binding sites in the rat frontal cortex
T1 construct: from tissue; host or cells: rat frontal cortex
T1 sequence (P14842 whole entry): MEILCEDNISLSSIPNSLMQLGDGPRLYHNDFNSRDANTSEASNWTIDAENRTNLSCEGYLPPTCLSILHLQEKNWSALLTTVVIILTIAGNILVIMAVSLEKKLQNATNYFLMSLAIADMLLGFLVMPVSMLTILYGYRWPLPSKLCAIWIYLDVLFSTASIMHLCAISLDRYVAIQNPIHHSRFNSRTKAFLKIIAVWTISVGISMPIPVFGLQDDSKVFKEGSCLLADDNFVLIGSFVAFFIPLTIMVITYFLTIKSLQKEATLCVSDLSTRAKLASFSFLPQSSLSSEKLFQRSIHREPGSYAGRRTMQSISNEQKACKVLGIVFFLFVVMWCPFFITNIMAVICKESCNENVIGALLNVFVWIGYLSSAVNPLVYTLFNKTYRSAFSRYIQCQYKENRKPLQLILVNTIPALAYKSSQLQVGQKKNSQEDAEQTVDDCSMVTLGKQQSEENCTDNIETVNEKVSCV
Source text: (§1) In addition, the compound of formula I and of formula II also show good activity in in vitro binding assays involving binding to neural receptors. […] The compounds are also active at the 5-HT-IC receptor.

dopamine D-2 receptor = dopamine D-2 receptor (Homo sapiens, UniProt P14416); assay: 3H-spiperone binding assay
dopamine D-2 receptor, sequence (P14416 whole entry): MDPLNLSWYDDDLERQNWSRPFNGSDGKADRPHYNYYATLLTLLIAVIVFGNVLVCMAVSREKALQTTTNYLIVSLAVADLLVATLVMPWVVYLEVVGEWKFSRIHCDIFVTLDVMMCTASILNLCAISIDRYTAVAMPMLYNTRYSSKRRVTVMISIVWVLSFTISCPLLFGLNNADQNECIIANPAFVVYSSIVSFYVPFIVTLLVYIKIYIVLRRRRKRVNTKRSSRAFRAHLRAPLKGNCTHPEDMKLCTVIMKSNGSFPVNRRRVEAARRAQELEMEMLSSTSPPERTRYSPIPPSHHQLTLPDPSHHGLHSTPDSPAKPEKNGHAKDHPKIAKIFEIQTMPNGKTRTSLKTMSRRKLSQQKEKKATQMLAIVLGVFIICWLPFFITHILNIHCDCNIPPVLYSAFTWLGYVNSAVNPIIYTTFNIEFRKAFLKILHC
Source text: as §1

5-HT-IC receptor = molecular target: T2, 5-HT-IC receptor (Homo sapiens, UniProt P28335); assay: Activity at the 5-HT-IC receptor; assay type: binding
T2 sequence (P28335 33-458): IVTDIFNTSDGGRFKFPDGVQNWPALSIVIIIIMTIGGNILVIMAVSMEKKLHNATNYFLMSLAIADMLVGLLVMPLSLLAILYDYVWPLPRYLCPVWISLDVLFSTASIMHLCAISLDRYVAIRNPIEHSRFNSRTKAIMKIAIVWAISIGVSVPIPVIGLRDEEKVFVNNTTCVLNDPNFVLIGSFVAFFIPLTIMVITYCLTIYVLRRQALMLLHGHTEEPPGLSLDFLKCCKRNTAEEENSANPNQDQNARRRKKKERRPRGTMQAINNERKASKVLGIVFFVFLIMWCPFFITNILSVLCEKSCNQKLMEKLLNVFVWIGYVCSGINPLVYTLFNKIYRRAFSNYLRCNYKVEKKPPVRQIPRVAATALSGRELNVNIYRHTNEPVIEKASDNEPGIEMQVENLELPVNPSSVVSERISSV
Source text: as §1

rats [2] = assay: Conditioned avoidance response in rats; assay type: in vivo; settings: Rattus norvegicus, read-out: ED50, inhibition of conditioned avoidance response

Concentration displacing H-spiperone at the 5-HT-2 receptor (5-HT-2 receptor) | IC50 (dopamine D-2 receptor) | Activity at the 5-HT-IC receptor (5-HT-IC receptor) | SMILES | Catalepsy (rats [1]) | ED50 (rats [2])
low nanomolar concentrations | < 1000 nM | active | Cc1cc2c(s1)Nc1ccccc1N=C2N1CC[N+](C)(CCl)CC1 [formula I, 2-methyl-4-(4-methyl-4-chloromethyl-1-piperazinyl)-10H-thieno-[2,3-b][1,5]-benzodiazepine] | without inducing catalepsy | ~5 mg/kg
low nanomolar concentrations | < 1000 nM | active | CC(=O)N1CCN(C2=Nc3ccccc3Nc3sc(C)cc32)CC1 [formula II, 2-methyl-4-(4-acetyl-1-piperazinyl)-10H-thieno-[2,3-b][1,5]-benzodiazepine] | without inducing catalepsy | ~5 mg/kg
